Reference: the supplement of paper PMC10721915
± gives the standard deviation of the averaged measurements.

Compound: COc1ccc([C@@H](O)c2cc(-c3ncnc4cc(N5CCOCC5)ccc34)c(F)cc2Cl)nn1 [peposertib]
Experiment: relative cell growth vs untreated control (GI, NCI-DTP normalisation with time-zero) (fraction of control growth); higher = more growth / less inhibition
Conditions: peposertib concentration 0.00488 µM; gamma irradiation dose (Gy): 0; treatment time: 120 h
Description: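 Cancer cell lines were treated with peposertib (DNA-PK inhibitor) combined with gamma ionizing radiation (0, 2, 3 or 6 Gy) for 120 h, starting 48 h after seeding. Read-out was sulforhodamine B total-protein staining, normalised to untreated control and time-zero wells (NCI-DTP GI convention).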

Point of comparison: TE671, relative cell growth 0.999. Against it:
- NCIH358M — within error, 1.004 ± 0.01
- NCIH460 — higher, 1.05 ± 0.025
- OVCAR3 — lower, 0.907
- OVCAR4 — higher, 1.03
- PANC1 — lower, 0.969
- PC3 — higher, 1.04
- PLCPRF5 — higher, 1.01
- RAMOS — higher, 1.06
- RD — lower, 0.929
- RDES — lower, 0.935
- SAOS2 — lower, 0.945
- SF268 — higher, 1.01
- SF295 — higher, 1.03
- SKBR3 — lower, 0.938
- SKLMS1 — lower, 0.903
- SKMEL5 — higher, 1.07
- SKMEL28 — higher, 1
- SUDHL6 — lower, 0.943
- SUDHL10 — higher, 1.01
- SW620 — within error, 1.03 ± 0.033
- T24 — higher, 1.01
- THP1 — lower, 0.988
- U2OS — higher, 1.05
- U87MG — higher, 1.23
- UMUC3 — higher, 1.06
- WSUNHL — higher, 1.07

Same assay, conditions: peposertib concentration 0.00488 µM; gamma irradiation dose (Gy): 3; treatment time: 120 h

Point of comparison: SW620, relative cell growth 0.3. Against it:
- NCIH358M — lower, 0.299
- NCIH460 — higher, 0.302

Same assay, conditions: peposertib concentration 0.0195 µM; gamma irradiation dose (Gy): 0; treatment time: 120 h

Point of comparison: OVCAR3, relative cell growth 0.952. Against it:
- NCIH358M — within error, 0.975 ± 0.03
- NCIH460 — higher, 1.04 ± 0.02
- OVCAR4 — higher, 1.01
- PANC1 — higher, 0.974
- PC3 — higher, 1
- PLCPRF5 — higher, 0.969
- RAMOS — higher, 0.987
- RD — higher, 0.97
- RDES — higher, 0.961
- SAOS2 — higher, 0.983
- SF268 — higher, 0.994
- SF295 — higher, 1.01
- SKBR3 — higher, 1.03
- SKLMS1 — higher, 0.977
- SKMEL5 — higher, 1.07
- SKMEL28 — higher, 1.02
- SUDHL6 — lower, 0.915
- SUDHL10 — higher, 1.01
- SW620 — higher, 1.01 ± 0.048
- T24 — higher, 0.992
- TE671 — higher, 0.999
- THP1 — higher, 0.968
- U2OS — higher, 1.04
- U87MG — higher, 1.06
- UMUC3 — higher, 1.06
- WSUNHL — higher, 1.08

Same assay, conditions: peposertib concentration 0.0195 µM; gamma irradiation dose (Gy): 3; treatment time: 120 h

Point of comparison: NCIH460, relative cell growth 0.384. Against it:
- NCIH358M — lower, 0.27
- SW620 — lower, 0.245

Same assay, conditions: peposertib concentration 0.0781 µM; gamma irradiation dose (Gy): 0; treatment time: 120 h

Point of comparison: THP1, relative cell growth 0.887. Against it:
- NCIH358M — higher, 0.963 ± 0.03
- NCIH460 — higher, 1.02 ± 0.025
- OVCAR3 — higher, 0.919
- OVCAR4 — higher, 0.983
- PANC1 — higher, 0.956
- PC3 — higher, 0.971
- PLCPRF5 — higher, 0.974
- RAMOS — higher, 0.927
- RD — higher, 0.942
- RDES — higher, 0.971
- SAOS2 — higher, 0.946
- SF268 — higher, 0.943
- SF295 — higher, 0.992
- SKBR3 — higher, 1.03
- SKLMS1 — higher, 0.896
- SKMEL5 — higher, 1.11
- SKMEL28 — higher, 0.902
- SUDHL6 — lower, 0.816
- SUDHL10 — higher, 1.02
- SW620 — higher, 0.992 ± 0.054
- T24 — higher, 0.979
- TE671 — higher, 0.989
- U2OS — higher, 1
- U87MG — higher, 1.02
- UMUC3 — higher, 0.997
- WSUNHL — lower, 0.713

Same assay, conditions: peposertib concentration 0.0781 µM; gamma irradiation dose (Gy): 3; treatment time: 120 h

Point of comparison: SW620, relative cell growth 0.131. Against it:
- NCIH358M — higher, 0.182
- NCIH460 — higher, 0.181

Same assay, conditions: peposertib concentration 0.313 µM; gamma irradiation dose (Gy): 0; treatment time: 120 h

Point of comparison: PLCPRF5, relative cell growth 0.898. Against it:
- NCIH358M — within error, 0.869 ± 0.1
- NCIH460 — within error, 0.934 ± 0.16
- OVCAR3 — lower, 0.739
- OVCAR4 — lower, 0.875
- PANC1 — higher, 0.92
- PC3 — lower, 0.781
- RAMOS — lower, 0.736
- RD — higher, 0.94
- RDES — lower, 0.785
- SAOS2 — lower, 0.82
- SF268 — lower, 0.867
- SF295 — higher, 0.945
- SKBR3 — lower, 0.89
- SKLMS1 — lower, 0.593
- SKMEL5 — higher, 1.08
- SKMEL28 — lower, 0.746
- SUDHL6 — lower, 0.254
- SUDHL10 — higher, 1.12
- SW620 — within error, 0.94 ± 0.046
- T24 — higher, 0.927
- TE671 — higher, 0.929
- THP1 — lower, 0.721
- U2OS — higher, 0.966
- U87MG — lower, 0.733
- UMUC3 — higher, 0.932
- WSUNHL — lower, 0.513

Same assay, conditions: peposertib concentration 0.313 µM; gamma irradiation dose (Gy): 3; treatment time: 120 h

Point of comparison: NCIH460, relative cell growth 0.0919. Against it:
- NCIH358M — higher, 0.181
- SW620 — lower, 0.044

Same assay, conditions: peposertib concentration 1.25 µM; gamma irradiation dose (Gy): 0; treatment time: 120 h

Point of comparison: SKMEL5, relative cell growth 0.72. Against it:
- NCIH358M — within error, 0.695 ± 0.16
- NCIH460 — within error, 0.661 ± 0.37
- OVCAR3 — lower, 0.372
- OVCAR4 — higher, 0.858
- PANC1 — higher, 0.741
- PC3 — lower, 0.532
- PLCPRF5 — higher, 0.807
- RAMOS — lower, 0.377
- RD — higher, 0.826
- RDES — lower, 0.57
- SAOS2 — lower, 0.458
- SF268 — higher, 0.747
- SF295 — lower, 0.54
- SKBR3 — lower, 0.523
- SKLMS1 — lower, 0.435
- SKMEL28 — lower, 0.648
- SUDHL6 — lower, -0.0283
- SUDHL10 — higher, 1.12
- SW620 — within error, 0.833 ± 0.15
- T24 — higher, 0.838
- TE671 — higher, 0.736
- THP1 — lower, 0.436
- U2OS — higher, 0.815
- U87MG — lower, 0.257
- UMUC3 — higher, 0.819
- WSUNHL — lower, 0.0836

Same assay, conditions: peposertib concentration 1.25 µM; gamma irradiation dose (Gy): 3; treatment time: 120 h

Point of comparison: NCIH460, relative cell growth 0.044. Against it:
- NCIH358M — higher, 0.108
- SW620 — lower, 0.0135

Same assay, conditions: peposertib concentration 5 µM; gamma irradiation dose (Gy): 0; treatment time: 120 h

Point of comparison: OVCAR4, relative cell growth 0.633. Against it:
- NCIH358M — lower, 0.345 ± 0.078
- NCIH460 — lower, 0.177 ± 0.11
- OVCAR3 — lower, 0.0464
- PANC1 — lower, 0.411
- PC3 — lower, 0.262
- PLCPRF5 — lower, 0.586
- RAMOS — lower, 0.129
- RD — lower, 0.455
- RDES — lower, 0.24
- SAOS2 — lower, 0.0757
- SF268 — lower, 0.516
- SF295 — lower, 0.209
- SKBR3 — lower, 0.0447
- SKLMS1 — lower, 0.169
- SKMEL5 — lower, 0.202
- SKMEL28 — lower, 0.477
- SUDHL6 — lower, -0.0413
- SUDHL10 — lower, 0.345
- SW620 — within error, 0.675 ± 0.2
- T24 — higher, 0.748
- TE671 — lower, 0.243
- THP1 — lower, 0.148
- U2OS — lower, 0.529
- U87MG — lower, 0.116
- UMUC3 — lower, 0.5
- WSUNHL — lower, -0.0127

Same assay, conditions: peposertib concentration 5 µM; gamma irradiation dose (Gy): 3; treatment time: 120 h

Point of comparison: SW620, relative cell growth 0.0174. Against it:
- NCIH358M — higher, 0.0702
- NCIH460 — higher, 0.0283
